Measurements published in PubChem BioAssay AID1963861 (Molecular Pharmacology Branch, DTP, NCI, 2024).

Tested on: 885724-159-R-J1-PDC KRAS PDC multicell spheroid viability
Assay: Anticancer human tumor 885724-159-R-J1-PDC patient-derived pancreatic adenocarcinoma cell line growth inhibition [KRAS2]
Conditions: for IC50: curve of first compound; for viability, T/C: stronger effect = lower value
In short: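 Combination screen of spheroid viability in tumor-cell co-cultures with endothelial (HUVEC) and mesenchymal stem cell stroma. Each agent was tested in half-log dilutions, topping at clinical Cmax or at 10 microM without a known Cmax.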

[1] = second compound 0.1 µM, first compound 0.000316 µM
[2] = second compound 0.1 µM, first compound 0.001 µM
[3] = second compound 0.1 µM, first compound 0.00316 µM
[4] = second compound 0.1 µM, first compound 0.01 µM
[5] = second compound 0.1 µM, first compound 0.0316 µM
[6] = second compound 0.316 µM, first compound 0.000316 µM
[7] = second compound 0.316 µM, first compound 0.001 µM
[8] = second compound 0.316 µM, first compound 0.00316 µM
[9] = second compound 0.316 µM, first compound 0.01 µM
[10] = second compound 0.316 µM, first compound 0.0316 µM
[11] = second compound 1 µM, first compound 0.000316 µM
[12] = second compound 1 µM, first compound 0.001 µM
[13] = second compound 1 µM, first compound 0.00316 µM
[14] = second compound 1 µM, first compound 0.01 µM
[15] = second compound 1 µM, first compound 0.0316 µM
[16] = second compound 3.16 µM, first compound 0.000316 µM
[17] = second compound 3.16 µM, first compound 0.001 µM
[18] = second compound 3.16 µM, first compound 0.00316 µM
[19] = second compound 3.16 µM, first compound 0.01 µM
[20] = second compound 3.16 µM, first compound 0.0316 µM
[21] = second compound 10 µM, first compound 0.000316 µM
[22] = second compound 10 µM, first compound 0.001 µM
[23] = second compound 10 µM, first compound 0.00316 µM
[24] = second compound 10 µM, first compound 0.01 µM
[25] = second compound 10 µM, first compound 0.0316 µM
[26] = second compound 0.1 µM, first compound 0.1 µM
[27] = second compound 0.1 µM, first compound 0.316 µM
[28] = second compound 0.1 µM, first compound 1 µM
[29] = second compound 0.1 µM, first compound 3.16 µM
[30] = second compound 0.1 µM, first compound 10 µM
[31] = second compound 0.316 µM, first compound 0.1 µM
[32] = second compound 0.316 µM, first compound 0.316 µM
[33] = second compound 0.316 µM, first compound 1 µM
[34] = second compound 0.316 µM, first compound 3.16 µM
[35] = second compound 0.316 µM, first compound 10 µM
[36] = second compound 1 µM, first compound 0.1 µM
[37] = second compound 1 µM, first compound 0.316 µM
[38] = second compound 1 µM, first compound 1 µM
[39] = second compound 1 µM, first compound 3.16 µM
[40] = second compound 1 µM, first compound 10 µM
[41] = second compound 3.16 µM, first compound 0.1 µM
[42] = second compound 3.16 µM, first compound 0.316 µM
[43] = second compound 3.16 µM, first compound 1 µM
[44] = second compound 3.16 µM, first compound 3.16 µM
[45] = second compound 3.16 µM, first compound 10 µM
[46] = second compound 10 µM, first compound 0.1 µM
[47] = second compound 10 µM, first compound 0.316 µM
[48] = second compound 10 µM, first compound 1 µM
[49] = second compound 10 µM, first compound 3.16 µM
[50] = second compound 10 µM, first compound 10 µM
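Note: spheroids exposed to agents for 7 days before readout.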

CC(=O)Nc1cccc(-n2c(=O)n(C3CC3)c(=O)c3c(Nc4ccc(I)cc4F)n(C)c(=O)c(C)c32)c1 + C=CC(=O)N1CCN(c2nc(=O)n(-c3c(C)ccnc3C(C)C)c3nc(-c4c(O)cccc4F)c(F)cc23)C(C)C1
IC50 (second compound 0.1 µM): 1.74 nM
IC50 (second compound 0.316 µM): 1.57 nM
IC50 (second compound 1 µM): 2 nM
IC50 (second compound 3.16 µM): 1.36 nM
IC50 (second compound 10 µM): 0.33 nM
viability, T/C (second compound 0.1 µM, first compound 0.0001 µM): 102%
viability, T/C [1]: 81.2%
viability, T/C [2]: 55.9%
viability, T/C [3]: 42.2%
viability, T/C [4]: 30%
viability, T/C [5]: 21.3%
viability, T/C (second compound 0.316 µM, first compound 0.0001 µM): 114%
viability, T/C [6]: 83%
viability, T/C [7]: 54.6%
viability, T/C [8]: 40.1%
viability, T/C [9]: 30.6%
viability, T/C [10]: 21.4%
viability, T/C (second compound 1 µM, first compound 0.0001 µM): 92.5%
viability, T/C [11]: 84.3%
viability, T/C [12]: 61.2%
viability, T/C [13]: 41.7%
viability, T/C [14]: 31.9%
viability, T/C [15]: 23.8%
viability, T/C (second compound 3.16 µM, first compound 0.0001 µM): 84.6%
viability, T/C [16]: 81.5%
viability, T/C [17]: 52.4%
viability, T/C [18]: 38.7%
viability, T/C [19]: 30.1%
viability, T/C [20]: 26.6%
viability, T/C (second compound 10 µM, first compound 0.0001 µM): 61.6%
viability, T/C [21]: 51.3%
viability, T/C [22]: 29.3%
viability, T/C [23]: 26.4%
viability, T/C [24]: 23.2%
viability, T/C [25]: 18.6%

COC(=O)c1ccc2c(C(=Nc3ccc(N(C)C(=O)CN4CCN(C)CC4)cc3)c3ccccc3)c(O)[nH]c2c1 + C=CC(=O)N1CCN(c2nc(=O)n(-c3c(C)ccnc3C(C)C)c3nc(-c4c(O)cccc4F)c(F)cc23)C(C)C1
IC50 (second compound 0.1 µM): 3150 nM
IC50 (second compound 0.316 µM): 2270 nM
IC50 (second compound 1 µM): 2070 nM
IC50 (second compound 3.16 µM): 2110 nM
IC50 (second compound 10 µM): 1540 nM
viability, T/C [5]: 109%
viability, T/C [26]: 111%
viability, T/C [27]: 102%
viability, T/C [28]: 103%
viability, T/C [29]: 49.8%
viability, T/C [30]: 1.26%
viability, T/C [10]: 105%
viability, T/C [31]: 109%
viability, T/C [32]: 102%
viability, T/C [33]: 104%
viability, T/C [34]: 28.1%
viability, T/C [35]: 0.55%
viability, T/C [15]: 113%
viability, T/C [36]: 111%
viability, T/C [37]: 110%
viability, T/C [38]: 98.6%
viability, T/C [39]: 21.9%
viability, T/C [40]: 0.74%
viability, T/C [20]: 106%
viability, T/C [41]: 110%
viability, T/C [42]: 105%
viability, T/C [43]: 95.7%
viability, T/C [44]: 25.1%
viability, T/C [45]: 0.65%
viability, T/C [25]: 89.7%
viability, T/C [46]: 70.4%
viability, T/C [47]: 79.1%
viability, T/C [48]: 69.9%
viability, T/C [49]: 17.2%
viability, T/C [50]: 0.39%

CCNC(=O)CC1N=C(c2ccc(Cl)cc2)c2cc(OC)ccc2-n2c(C)nnc21 (stereo not given) + CC1OCC2(CCN(c3cnc(Sc4ccnc(N)c4Cl)c(N)n3)CC2)C1N
IC50 (second compound 0.1 µM): 1000 nM
IC50 (second compound 0.316 µM): 676 nM
IC50 (second compound 1 µM): 600 nM
IC50 (second compound 3.16 µM): 437 nM
IC50 (second compound 10 µM): 256 nM
viability, T/C [5]: 92.8%
viability, T/C [26]: 95%
viability, T/C [27]: 67.2%
viability, T/C [28]: 54.5%
viability, T/C [29]: 43.9%
viability, T/C [30]: 49.5%
viability, T/C [10]: 86.1%
viability, T/C [31]: 80%
viability, T/C [32]: 59.2%
viability, T/C [33]: 45.2%
viability, T/C [34]: 44%
viability, T/C [35]: 40.2%
viability, T/C [15]: 80.5%
viability, T/C [36]: 80%
viability, T/C [37]: 56.6%
viability, T/C [38]: 45%
viability, T/C [39]: 38.5%
viability, T/C [40]: 33.9%
viability, T/C [20]: 74%
viability, T/C [41]: 72.5%
viability, T/C [42]: 54.1%
viability, T/C [43]: 37.9%
viability, T/C [44]: 33.5%
viability, T/C [45]: 30.1%
viability, T/C [25]: 66.9%
viability, T/C [46]: 61.9%
viability, T/C [47]: 47.5%
viability, T/C [48]: 31.6%
viability, T/C [49]: 26.4%
viability, T/C [50]: 26.2%

COc1cc2nccc(Oc3ccc(NC(=O)C4(C(=O)Nc5ccc(F)cc5)CC4)cc3)c2cc1OC + CC1OCC2(CCN(c3cnc(Sc4ccnc(N)c4Cl)c(N)n3)CC2)C1N
IC50 (second compound 0.1 µM): > 10000 nM
IC50 (second compound 0.316 µM): > 10000 nM
IC50 (second compound 1 µM): 3120 nM
IC50 (second compound 3.16 µM): 2980 nM
IC50 (second compound 10 µM): 2210 nM
viability, T/C [5]: 87.1%
viability, T/C [26]: 87.9%
viability, T/C [27]: 87.9%
viability, T/C [28]: 82.7%
viability, T/C [29]: 59.1%
viability, T/C [30]: 63%
viability, T/C [10]: 84.7%
viability, T/C [31]: 79.9%
viability, T/C [32]: 83.7%
viability, T/C [33]: 84.7%
viability, T/C [34]: 60.5%
viability, T/C [35]: 51.1%
viability, T/C [15]: 74.3%
viability, T/C [36]: 71.2%
viability, T/C [37]: 76.2%
viability, T/C [38]: 72.5%
viability, T/C [39]: 49.1%
viability, T/C [40]: 50.3%
viability, T/C [20]: 75.5%
viability, T/C [41]: 82.8%
viability, T/C [42]: 72.1%
viability, T/C [43]: 67.7%
viability, T/C [44]: 45.8%
viability, T/C [45]: 52.3%
viability, T/C [25]: 71.4%
viability, T/C [46]: 62.9%
viability, T/C [47]: 67.4%
viability, T/C [48]: 63.3%
viability, T/C [49]: 44%
viability, T/C [50]: 39.4%

Cn1ncnc1[C@H]1c2n[nH]c(=O)c3cc(F)cc(c23)N[C@@H]1c1ccc(F)cc1 + C=CC(=O)N1CCN(c2nc(OCC3CCCN3C)nc3c2CCN(c2cccc4cccc(C)c24)C3)CC1CC#N
IC50 (second compound 0.0316 µM): > 100 nM
IC50 (second compound 0.1 µM): > 100 nM
IC50 (second compound 0.316 µM): > 100 nM
IC50 (second compound 1 µM): > 100 nM
IC50 (second compound 3.16 µM): > 100 nM
viability, T/C (second compound 0.0316 µM, first compound 0.000316 µM): 115%
viability, T/C (second compound 0.0316 µM, first compound 0.001 µM): 117%
viability, T/C (second compound 0.0316 µM, first compound 0.00316 µM): 108%
viability, T/C (second compound 0.0316 µM, first compound 0.01 µM): 103%
viability, T/C (second compound 0.0316 µM, first compound 0.0316 µM): 97.8%
viability, T/C (second compound 0.0316 µM, first compound 0.1 µM): 96.1%
viability, T/C [1]: 106%
viability, T/C [2]: 108%
viability, T/C [3]: 98.7%
viability, T/C [4]: 108%
viability, T/C [5]: 106%
viability, T/C [26]: 89.5%
viability, T/C [6]: 110%
viability, T/C [7]: 111%
viability, T/C [8]: 106%
viability, T/C [9]: 102%
viability, T/C [10]: 112%
viability, T/C [31]: 88.6%
viability, T/C [11]: 100%
viability, T/C [12]: 114%
viability, T/C [13]: 108%
viability, T/C [14]: 101%
viability, T/C [15]: 102%
viability, T/C [36]: 99.4%
viability, T/C [16]: 69.6%
viability, T/C [17]: 61.4%
viability, T/C [18]: 63.3%
viability, T/C [19]: 67.7%
viability, T/C [20]: 59.5%
viability, T/C [41]: 59.7%

Cn1ncnc1[C@H]1c2n[nH]c(=O)c3cc(F)cc(c23)N[C@@H]1c1ccc(F)cc1 + COc1cc2nc(C)nc(NC(C)c3cc(N)cc(C(F)(F)F)c3)c2cc1OC1CCOC1
IC50 (second compound 0.1 µM): > 100 nM
IC50 (second compound 0.316 µM): > 100 nM
IC50 (second compound 1 µM): > 100 nM
IC50 (second compound 3.16 µM): > 100 nM
IC50 (second compound 10 µM): < 0.316 nM
viability, T/C [1]: 104%
viability, T/C [2]: 101%
viability, T/C [3]: 102%
viability, T/C [4]: 96.2%
viability, T/C [5]: 92.1%
viability, T/C [26]: 93.4%
viability, T/C [6]: 96.3%
viability, T/C [7]: 102%
viability, T/C [8]: 98.6%
viability, T/C [9]: 98.3%
viability, T/C [10]: 94.5%
viability, T/C [31]: 91.3%
viability, T/C [11]: 98.2%
viability, T/C [12]: 96.5%
viability, T/C [13]: 92.4%
viability, T/C [14]: 94.3%
viability, T/C [15]: 102%
viability, T/C [36]: 85.5%
viability, T/C [16]: 91.8%
viability, T/C [17]: 97.9%
viability, T/C [18]: 90.5%
viability, T/C [19]: 88.5%
viability, T/C [20]: 94.3%
viability, T/C [41]: 83.1%
viability, T/C [21]: 42.1%
viability, T/C [22]: 44.8%
viability, T/C [23]: 20.7%
viability, T/C [24]: 48.3%
viability, T/C [25]: 34.2%
viability, T/C [46]: 30.4%
